Six compounds from BindingDB's records for doi:10.1111/cbdd.12016 (Peking University Health Science Center, 2012) can be followed below.

For the assay, the target named is Beta-secretase 1 (Homo sapiens, UniProt P56817). As to the kind of experiment: Fluorescence Resonance Energy Transfer (FRET) Assay. How it is done: BACE1 inhibitory evaluation was carried out using a Fluorescence Resonance Energy Transfer (FRET) assay kit supplied by PanVera (kit P2985, Madison, WI, USA).

pIC50: −log10 of the molar value.

Sequence of Beta-secretase 1 (P56817 whole entry): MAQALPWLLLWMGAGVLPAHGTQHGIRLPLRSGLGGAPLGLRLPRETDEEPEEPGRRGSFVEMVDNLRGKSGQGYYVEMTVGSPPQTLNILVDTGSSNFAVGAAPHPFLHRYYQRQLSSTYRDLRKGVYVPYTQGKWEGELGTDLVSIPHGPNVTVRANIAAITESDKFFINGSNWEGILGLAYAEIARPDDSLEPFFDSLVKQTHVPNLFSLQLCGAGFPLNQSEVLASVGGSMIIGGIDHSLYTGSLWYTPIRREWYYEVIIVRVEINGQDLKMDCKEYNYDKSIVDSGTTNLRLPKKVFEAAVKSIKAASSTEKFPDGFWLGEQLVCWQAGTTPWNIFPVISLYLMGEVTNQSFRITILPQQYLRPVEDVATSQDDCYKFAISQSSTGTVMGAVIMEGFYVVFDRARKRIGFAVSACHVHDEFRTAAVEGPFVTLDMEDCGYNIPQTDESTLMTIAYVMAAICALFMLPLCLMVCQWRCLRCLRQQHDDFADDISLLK

Take `CCCCOc1cccc(-c2cc(Oc3ccccc3)cc(C(=N)N)c2)c1` [Benzimidamide, 6b]: the pIC50 was 5.15.

`CCCOc1cccc(-c2cc(C#N)cc(Oc3ccccc3F)c2)c1` [Benzonitrile, 5c] gave a negative-log IC50 (pIC50) of 4.10.

Take `CCCOc1cccc(-c2cc(Oc3ccccc3)cc(C(=N)N)c2)c1` [Benzimidamide, 6a]: the pIC50 is 5.10.

The compound `CCCCOc1cccc(-c2cc(C#N)cc(Oc3ccccc3F)c2)c1` [Benzonitrile, 5d] had a negative-log IC50 (pIC50) of 5.03.

`CCCOc1cccc(-c2cc(Oc3ccccc3F)cc(C(=N)N)c2)c1` [Benzimidamide, 6c] had a negative logarithm of the IC50 (pIC50) of 5.36.

For `CCCCOc1cccc(-c2cc(Oc3ccccc3F)cc(C(=N)N)c2)c1` [Benzimidamide, 6d], the pIC50 is 5.47.
